Measured values as given in patent US20140296212A1, “SUBSTITUTED PHENOXYPROPYLCYCLOAMINE DERIVATIVES AS HISTAMINE-3 (H3) RECEPTOR LIGANDS” (CEPHALON, INC., priority 2009, published 2014).
Read-outs that look alike come from different tables or passages of the source.

What was measured:
human H3 receptor = target: T1, human H3 receptor (Homo sapiens, UniProt Q9Y5N1); assay: Human H3 radioligand binding ([3H]-N-alpha-methylhistamine, SPA); details: membranes of CHO cells expressing human H3
T1 construct: expressed in transfected cells
Procedure: Cell pellets were resuspended in 5 mM Tris-HCl, pH 7.5 with 5 nM EDTA and a cocktail of protease inhibitors (Complete Protease Inhibitor Tablets, Roche Diagnostics). Cells were disrupted using a polytron cell homogenizer and the suspension was centrifuged at 1000×g for 10 minutes at 4° C. The pellet was discarded and the supernatant centrifuged at 40,000×g for 30 min at 4° C. This membrane pellet was washed in membrane buffer containing 50 mM Tris-HCl, pH 7.5 with 0.6 mM EDTA, 5 mM MgCl2 and protease inhibitors, recentrifuged as above and the final pellet resuspended in membrane buffer plus 250 mM sucrose and frozen at −80° C.
(§1) Membranes were resuspended in 50 mM Tris HCl (pH 7.4), 5 mM MgCl2, 0.1% BSA. The membrane suspensions (10 μg protein per well) were incubated in a 96 well microtiter plate with [^3H]-N-alpha-methylhistamine (approximately 1 nM final concentration), test compounds at various concentrations (0.01 nM-30 μM) and scintillation proximity beads (Perkin Elmer, FlashBlueGPCR Scintillating Beads) in a final volume of 80 μl for 4 hours at room temperature, protected from light. Non-specific binding was determined in the presence of 10 μM clobenpropit. Radioligand bound to receptor, and therefore in proximity to the scintillation beads, was measured using a MicroBeta scintillation counter.

[1] = target: T2, rat histamine H3 receptor (Rattus norvegicus, UniProt Q9QYN8); assay: Rat H3 radioligand binding ([3H]-N-alpha-methylhistamine, SPA)
T2 construct: encoding the entire 445-amino-acid rat histamine H3 receptor; expressed in transfected cells
Text: The rat H3 receptor cDNA was PCR amplified from reverse-transcribed RNA pooled from rat thalamus, hypothalamus, striatum and prefrontal cortex with a sequence corresponding to by #338-1672 of Genbank file #NM_053506, encoding the entire 445-amino-acid rat histamine H3 receptor. This was engineered into the pIRES-neo3 mammalian expression vector, which was stably transfected into the CHO-A3 cell line (Euroscreen, Belgium), followed by clonal selection by limiting dilution. Cells were harvested and cell pellets were frozen (−80° C.). Cell pellets were resuspended in 5 mM Tris-HCl, pH 7.5 with 5 nM EDTA and a cocktail of protease inhibitors (Complete Protease Inhibitor Tablets, Roche Diagnostics). Cells were disrupted using a polytron cell homogenizer and the suspension was centrifuged at 1000×g for 10 minutes at 4° C. The pellet was discarded and the supernatant centrifuged at 40,000×g for 30 min at 4° C. This membrane pellet was washed in membrane buffer containing 50 mM Tris-HCl, pH 7.5 with 0.6 mM EDTA, 5 mM MgCl2 and protease inhibitors, recentrifuged as above and the final pellet resuspended in membrane buffer plus 250 mM sucrose and frozen at −80° C.
as §1

[2] = membranes of CHO-A3 cells expressing rat H3, [3H]-N-alpha-methylhistamine, read-out: Rat H3 Ki

T1 sequence (Q9Y5N1 whole entry): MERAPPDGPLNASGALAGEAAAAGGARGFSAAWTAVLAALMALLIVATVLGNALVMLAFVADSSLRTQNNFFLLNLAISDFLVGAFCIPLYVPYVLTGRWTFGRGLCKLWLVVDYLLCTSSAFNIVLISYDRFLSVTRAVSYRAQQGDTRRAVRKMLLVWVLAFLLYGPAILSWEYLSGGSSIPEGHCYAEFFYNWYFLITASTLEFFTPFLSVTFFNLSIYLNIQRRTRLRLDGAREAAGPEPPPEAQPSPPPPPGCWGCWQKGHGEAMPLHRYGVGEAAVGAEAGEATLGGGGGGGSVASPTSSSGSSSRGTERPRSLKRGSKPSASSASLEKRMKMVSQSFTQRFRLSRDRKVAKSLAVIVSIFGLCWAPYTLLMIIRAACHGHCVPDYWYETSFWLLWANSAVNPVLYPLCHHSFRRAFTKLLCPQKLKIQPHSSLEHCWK
T2 sequence (Q9QYN8 whole entry): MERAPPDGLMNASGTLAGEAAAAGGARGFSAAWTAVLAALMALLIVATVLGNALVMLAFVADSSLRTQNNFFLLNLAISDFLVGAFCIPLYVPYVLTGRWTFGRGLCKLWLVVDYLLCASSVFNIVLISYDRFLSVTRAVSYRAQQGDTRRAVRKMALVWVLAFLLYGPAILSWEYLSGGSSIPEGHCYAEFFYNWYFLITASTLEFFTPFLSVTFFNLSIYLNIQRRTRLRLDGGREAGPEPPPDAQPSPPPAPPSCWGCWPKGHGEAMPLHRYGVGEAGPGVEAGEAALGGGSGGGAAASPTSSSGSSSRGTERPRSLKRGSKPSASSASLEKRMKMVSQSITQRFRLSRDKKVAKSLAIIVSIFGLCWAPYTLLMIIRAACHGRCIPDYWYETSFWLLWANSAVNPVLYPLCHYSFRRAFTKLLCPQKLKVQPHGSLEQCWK

| Ki (human H3 receptor) [nM] | Ki [1, 2] [nM] | SMILES | Ki [1] [nM] |
| --- | --- | --- | --- |
| 0.1 to 100 | 0.1 to 100 | Cc1nc2ccccc2n1CC(=O)c1ccc(OCCCN2CCC[C@H]2C)cc1 [Example 142, 2-(2-Methyl-benzoimidazol-1-yl)-1-{4-[3-((R)-2-methyl-pyrrolidin-1-yl)-propoxy]-phenyl}-ethanone] | – |
| 0.1 to 100 | 0.1 to 100 | C[C@@H]1CCCN1CCCOc1ccc(C(=O)CN2CCOC(c3ccccc3)C2)cc1 (stereo partly drawn) [Example 29, 1-{4-[3-((R)-2-Methyl-pyrrolidin-1-yl)-propoxy]-phenyl}-2-(2-phenyl-morpholin-4-yl)-ethanone] | – |
| 0.1 to 100 | 0.1 to 100 | C[C@@H]1CCCN1CCCOc1ccc(C(=O)CN2CCN(C(=O)c3cccc4ccccc34)CC2)cc1 [Example 133, 1-{4-[3-((R)-2-Methyl-pyrrolidin-1-yl)-propoxy]-phenyl}-2-[4-(naphthalene-1-carbonyl)-piperazin-1-yl]-ethanone] | – |
| 0.1 to 100 | 0.1 to 100 | C[C@@H]1CCCN1CCCOc1ccc(C(=O)CN2CCN(C(=O)c3ccccc3)CC2)c(F)c1 [Example 103, 2-(4-Benzoyl-piperazin-1-yl)-1-{2-fluoro-4-[3-((R)-2-methyl-pyrrolidin-1-yl)-propoxy]-phenyl}-ethanone] | – |
| 0.1 to 100 | 0.1 to 100 | C[C@@H]1CCCN1CCCOc1ccc(C(=O)CN2CCCCC2)cc1 [Example 8, 1-{4-[3-((R)-2-Methyl-pyrrolidin-1-yl)-propoxy]-phenyl}-2-piperidin-1-yl-ethanone] | – |
| 0.1 to 100 | 0.1 to 100 | CC1CCCN1CCCOc1ccc(C(CN2CCOCC2)=NOC(C)(C)C)cc1 (racemic) [Example 165] | – |
| 0.1 to 100 | 0.1 to 100 | C[C@@H]1CCCN1CCCOc1ccc(C(=O)CN2CCC(C#N)CC2)cc1 [Example 43, 1-(2-{4-[3-((R)-2-Methyl-pyrrolidin-1-yl)-propoxy]-phenyl}-2-oxo-ethyl)-piperidine-4-carbonitrile] | – |
| > 1000 | > 1000 | O=C(CN1CCOCC1)c1ccc(OCCCN2CCCC2=O)cc1 [Example 67, 1-{3-[4-(2-Morpholin-4-yl-acetyl)-phenoxy]-propyl}-pyrrolidin-2-one] | – |
| 0.1 to 100 | 0.1 to 100 | C[C@@H]1CCCN1CCCOc1ccc(C(=O)CN2CCC(F)(F)C2)cc1 [Example 60, 2-(3,3-Difluoro-pyrrolidin-1-yl)-1-{4-[3-((R)-2-methyl-pyrrolidin-1-yl)-propoxy]-phenyl}-ethanone] | – |
| 0.1 to 100 | 0.1 to 100 | C[C@@H]1CCCN1CCCOc1ccc(C(=O)CN2CCN(C(=O)C(F)(F)F)CC2)cc1 [Example 64] | – |
| 0.1 to 100 | 0.1 to 100 | C[C@@H]1CCCN1CCCOc1ccc(C(=O)C(C)(C)N2CCOCC2)cc1 [Example 54] | – |
| 0.1 to 100 | 101 to 500 | C[C@@H]1CCCN1CCCOc1ccc(C(=O)CN2CCCC2=O)cc1 [Example 21, 1-(2-{4-[3-((R)-2-Methyl-pyrrolidin-1-yl)-propoxy]-phenyl}-2-oxo-ethyl)-pyrrolidin-2-one] | – |
| 0.1 to 100 | 0.1 to 100 | C[C@@H]1CCCN1CCCOc1ccc(C(=O)CN2CCCC(F)(F)C2)cc1 [Example 52, 2-(3,3-Difluoro-piperidin-1-yl)-1-{4-[3-((R)-2-methyl-pyrrolidin-1-yl)-propoxy]-phenyl}-ethanone] | – |
| 101 to 500 | > 1000 | COc1cc(C(=O)CN2CCN(C(=O)c3ccccc3)CC2)ccc1OCCCN1CCC[C@H]1C [Example 112, 2-(4-Benzoyl-piperazin-1-yl)-1-{3-methoxy-4-[3-((R)-2-methyl-pyrrolidin-1-yl)-propoxy]-phenyl}-ethanone] | – |
| 0.1 to 100 | 0.1 to 100 | C[C@@H]1CCCN1CCCOc1ccc(C(=O)CN2CCN(C(=O)c3ccccc3)CC2)cc1 [Example 68, 2-(4-Benzoyl-piperazin-1-yl)-1-{4-[3-((R)-2-methyl-pyrrolidin-1-yl)-propoxy]-phenyl}-ethanone] | – |
| 0.1 to 100 | 0.1 to 100 | COC(=O)N1CCN(CC(=O)c2ccc(OCCCN3CCC[C@H]3C)c(C)c2)CC1 [Example 137, 4-(2-{3-Methyl-4-[3-((R)-2-methyl-pyrrolidin-1-yl)-propoxy]-phenyl}-2-oxo-ethyl)-piperazine-1-carboxylic acid methyl ester] | – |
| 0.1 to 100 | 0.1 to 100 | C[C@@H]1CCCN1CCCOc1ccc(C(=O)CN2CCO[C@@H](c3ccccc3)C2)cc1 [Example 39, 1-{4-[3-((R)-2-Methyl-pyrrolidin-1-yl)-propoxy]-phenyl}-2-((S)-2-phenyl-morpholin-4-yl)-ethanone] | – |

Second part, the compound before the results:

| SMILES | Ki (human H3 receptor) [nM] | Ki [1, 2] [nM] | Ki [1] [nM] |
| --- | --- | --- | --- |
| Cc1cc(OCCCN2CCC[C@H]2C)ccc1C(=O)CN1CCOCC1 [Example 74, 1-{2-Methyl-4-[3-((R)-2-methyl-pyrrolidin-1-yl)-propoxy]-phenyl}-2-morpholin-4-yl-ethanone] | 0.1 to 100 | 101 to 500 | – |
| CC1CCCN1CCCOc1ccc(C(=O)C(C)N2CCOCC2)cc1 (centres unmarked) [Example 27, 1-{4-[3-(2-Methyl-pyrrolidin-1-yl)-propoxy]-phenyl}-2-morpholin-4-yl-propan-1-one] | 0.1 to 100 | – | 0.1 to 100 |
| C[C@@H]1CCCN1CCCOc1ccc(/C(CN2CCCCC2=O)=N/OC(C)(C)C)cc1 [Example 167] | 0.1 to 100 | 0.1 to 100 | – |
| C[C@@H]1CCCN1CCCOc1ccc(C(=O)CN2CCC(C(F)(F)F)CC2)cc1 [Example 47, 1-{4-[3-((R)-2-Methyl-pyrrolidin-1-yl)-propoxy]-phenyl}-2-(4-trifluoromethyl-piperidin-1-yl)-ethanone] | 0.1 to 100 | 0.1 to 100 | – |
| C[C@@H]1CCCN1CCCOc1ccc(C(=O)CN2CCCCC2=O)cc1 [Example 22, 1-(2-{4-[3-((R)-2-Methyl-pyrrolidin-1-yl)-propoxy]-phenyl}-2-oxo-ethyl)-piperidin-2-one] | 0.1 to 100 | 101 to 500 | – |
| C[C@@H]1CCCN1CCCOc1ccc(C(=O)CN2Cc3ccc(F)cc3C2)cc1 [Example 86, 2-(5-Fluoro-1,3-dihydro-isoindol-2-yl)-1-{4-[3-((R)-2-methyl-pyrrolidin-1-yl)-propoxy]-phenyl}-ethanone] | 0.1 to 100 | 0.1 to 100 | – |
| C[C@@H]1CCCN1CCCOc1ccc(C(=O)CN2CCO[C@H](c3ccccc3)C2)cc1 [Example 40, 1-{4-[3-((R)-2-Methyl-pyrrolidin-1-yl)-propoxy]-phenyl}-2-((R)-2-phenyl-morpholin-4-yl)-ethanone] | 0.1 to 100 | 0.1 to 100 | – |
| C[C@@H]1CCCN1CCCOc1ccc(/C(CN2CCCCC2)=N/OC(C)(C)C)cc1 [Example 160] | 0.1 to 100 | 0.1 to 100 | – |
| Cc1cc(C)cc(C(=O)N2CCN(CC(=O)c3ccc(OCCCN4CCC[C@H]4C)cc3)CC2)c1 [Example 140, 2-[4-(3,5-Dimethyl-benzoyl)-piperazin-1-yl]-1-{4-[3-((R)-2-methyl-pyrrolidin-1-yl)-propoxy]-phenyl}-ethanone] | 0.1 to 100 | 0.1 to 100 | – |
| CC(C)COC(=O)N1CCN(CC(=O)c2ccc(OCCCN3CCC[C@H]3C)cc2)CC1 [Example 131, 4-(2-{4-[3-((R)-2-Methyl-pyrrolidin-1-yl)-propoxy]-phenyl}-2-oxo-ethyl)-piperazine-1-carboxylic acid isobutyl ester] | 0.1 to 100 | 0.1 to 100 | – |
| C[C@@H]1CCCN1CCCOc1ccc(C(=O)CN2Cc3ccccc3C2)cc1 [Example 73, 2-(1,3-Dihydro-isoindol-2-yl)-1-{4-[3-((R)-2-methyl-pyrrolidin-1-yl)-propoxy]-phenyl}-ethanone] | 0.1 to 100 | 0.1 to 100 | – |
